Tests used:
Assay in all cases: selective drug sensitivity score (sDSS, relative to normal bone marrow) (sDSS (score)); higher = more potent and effective on the cell line relative to normal bone marrow cells
Settings in all cases: 72 h
MHH-CALL-4 = test system: MHH-CALL-4
COG-LL-332h = test system: COG-LL-332h
ALL-PO = test system: ALL-PO
NALL-1 = test system: NALL-1
MHH-CALL-3 = test system: MHH-CALL-3
MOLT-14 = test system: MOLT-14
KARPAS-45 = test system: KARPAS-45
HPB-ALL = test system: HPB-ALL
HAL-01 = test system: HAL-01
COG-LL-394h = test system: COG-LL-394h
TMD5 = test system: TMD5
MOLT-16 = test system: MOLT-16
P30-OHKUBO = test system: P30-OHKUBO
LC4-1 = test system: LC4-1
SUP-B15 = test system: SUP-B15
MOLT-4 = test system: MOLT-4
COG-LL-317 = test system: COG-LL-317
KASUMI-10 = test system: KASUMI-10
KOPN-8 = test system: KOPN-8
NALM-6 = test system: NALM-6
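Note: ALL cell lines in 384-well plates, five doses spanning 10,000-fold, each plate scaled between vehicle and 100 µmol/L benzalkonium chloride controls, sDSS an adapted area-under-curve metric.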

| Structure (SMILES) | selective drug sensitivity score (MHH-CALL-4) | selective drug sensitivity score (COG-LL-332h) | selective drug sensitivity score (ALL-PO) | selective drug sensitivity score (NALL-1) | selective drug sensitivity score (MHH-CALL-3) | selective drug sensitivity score (MOLT-14) | selective drug sensitivity score (KARPAS-45) | selective drug sensitivity score (HPB-ALL) | selective drug sensitivity score (HAL-01) | selective drug sensitivity score (COG-LL-394h) | selective drug sensitivity score (TMD5) | selective drug sensitivity score (MOLT-16) | selective drug sensitivity score (P30-OHKUBO) | selective drug sensitivity score (LC4-1) | selective drug sensitivity score (SUP-B15) | selective drug sensitivity score (MOLT-4) | selective drug sensitivity score (COG-LL-317) | selective drug sensitivity score (KASUMI-10) | selective drug sensitivity score (KOPN-8) | selective drug sensitivity score (NALM-6) |
| --- | --- | --- | --- | --- | --- | --- | --- | --- | --- | --- | --- | --- | --- | --- | --- | --- | --- | --- | --- | --- |
| O=C(Nc1cc(Cl)cc2c1[nH]c1cnccc12)c1cccnc1 [PS-1145] (top concentration 25000 nM) | -0.46 | -0.46 | -0.36 | 9.14 | -0.46 | -0.46 | 0.34 | -0.46 | 2.14 | -0.46 | -0.46 | -0.16 | 1.94 | -0.46 | -0.46 | -0.46 | -0.46 | 3.44 | -0.46 | -0.46 |
| CC(=O)O[C@H]1C(=O)[C@@]2(C)[C@H]([C@H](OC(=O)c3ccccc3)[C@]3(O)C[C@H](OC(=O)[C@H](O)[C@@H](NC(=O)c4ccccc4)c4ccccc4)C(C)=C1C3(C)C)[C@]1(OC(C)=O)CO[C@@H]1C[C@@H]2O [Paclitaxel] (top concentration 1000 nM) | 7.24 | 20.5 | 17.8 | 12.2 | 5.24 | 19 | 18.3 | 14.1 | 0.74 | 6.84 | 8.14 | 21.7 | 22 | 23 | 21.1 | 19.3 | 19.6 | 11.5 | 22.4 | 16.7 |
| CCCCCCCCCCCCCCCCCCOP(=O)([O-])OC1CC[N+](C)(C)CC1 [Perifosine] (top concentration 2500 nM) | -0.16 | -0.36 | 0.94 | -0.36 | -0.36 | -0.36 | -0.26 | 3.64 | -0.26 | -0.36 | -0.36 | -0.36 | -0.36 | 4.04 | 1.04 | -0.36 | -0.36 | -0.36 | -0.26 | -0.36 |
| CC[C@@H]1C(=O)OC[C@@H]1Cc1cncn1C [Pilocarpine] (top concentration 40000 nM) | -1.56 | -1.56 | -1.56 | 7.44 | -1.56 | -0.36 | -1.56 | 7.34 | -1.56 | -1.56 | -1.56 | 1.94 | -1.56 | -1.56 | -1.56 | -1.26 | -1.56 | -1.56 | -1.56 | -1.56 |
| Nc1cccc2c1C(=O)N(C1CCC(=O)NC1=O)C2=O (stereo not given) [Pomalidomide] (top concentration 10000 nM) | 7.54 | -0.26 | 8.14 | -0.06 | -0.26 | -0.26 | -0.26 | 1.44 | -0.26 | 0.04 | -0.26 | -0.26 | 0.54 | 4.54 | -0.26 | -0.26 | -0.26 | 0.24 | -0.26 | -0.26 |
| Cc1nc(=O)c2cc(CN(C)c3ccc(C(=O)N[C@@H](CCC(=O)O)C(=O)O)s3)ccc2[nH]1 [Raltitrexed] (top concentration 1000 nM) | 16.1 | 18.3 | 23 | 12.8 | 9.92 | 17.7 | 9.52 | 13.4 | 21.2 | 2.12 | -0.68 | 25.3 | 25.3 | 19.3 | 28 | 17.3 | 19.5 | 18.1 | 28.4 | 23 |
| C=CC(=O)Nc1cccc(Nc2nc(Nc3ccc(N4CCN(C(C)=O)CC4)cc3OC)ncc2C(F)(F)F)c1 [Rociletinib] (top concentration 10000 nM) | 2.14 | 1.84 | 10.3 | 3.14 | -1.06 | 2.54 | 3.14 | 1.74 | 0.14 | 5.24 | -2.06 | 2.04 | 4.24 | 3.94 | 1.44 | 2.04 | 1.44 | 6.94 | 1.14 | 4.94 |
| CC(C)N(CCCNC(=O)Nc1ccc(C(C)(C)C)cc1)C[C@H]1O[C@@H](n2cc(Br)c3c(N)ncnc32)[C@H](O)[C@@H]1O [SGC0946] (top concentration 10000 nM) | -1.12 | 0.18 | 1.58 | 5.58 | -1.12 | -0.02 | 3.98 | 1.18 | 0.68 | -0.82 | 3.98 | 0.78 | 2.58 | -1.02 | -0.62 | 0.08 | -1.12 | -0.12 | -0.72 | -0.82 |

Reference: the supplement of paper PMC8967900
